US20120202885A1, “METHODS, ASSAYS AND COMPOSITIONS FOR TREATING RETINOL-RELATED DISEASES” (ReVision Therapeutics, Inc., priority 2004, published 2012)

What was measured:
[1] = system: ABCA4 null mutant mice; test: HPR given i.p. to ABCA4 null mutant mice for 28 days: serum retinol, ocular retinoids and A2E; type: in vivo
Experimental: In order to explore the role of HPR in the visual cycle, the in vivo effects of HPR in mice have been examined. Thus, HPR was administered to ABCA4 null mutant mice (5-20 mg/kg, i.p. in DMSO) for periods of 28 days. Control mice received only the DMSO vehicle. At the end of the treatment period, the concentrations of retinol and HPR in serum and retinoid content in ocular tissues was measured. […] Thus, the calculated percent reduction for each of the measured retinoids, and A2E, was nearly identical (see FIG. 2).
Genetic crosses of RBP4^−/− mice with ABCA4^−/− mice was undertaken to examine the role of RBP in mediation of retinol levels in serum and ocular tissue.

[2] = system: wild type mice; test: HPR given to wild type mice for 5 days, then illumination: serum and ocular retinoids; type: in vivo; details: 20 mg/kg
Experimental: In order to ensure that the observed effects of HPR in ABCA4 null mice were not due to the genetic mutation, HPR (20 mg/kg, i.p. in DMSO) was administered to wild type mice for 5 days. Control mice received only the DMSO vehicle. On the final day of HPR treatment, the mice were exposed to constant illumination (1000 lux for 10 min) in order “stimulate” the visual cycle to generate visual chromophore. Immediately following the illumination period, the animals were sacrificed and the concentrations of retinoids in serum and ocular tissue were determined. […] As in the previous study, HPR caused a significant reduction in serum retinol (˜55%), ocular retinol (˜40%) and ocular retinal (˜30%). Although HPR did accumulate within ocular tissues during the treatment period (˜5 μM), no effect on LRAT or Rpe65/isomerase activities was observed.

[3] = target: Retinol Binding Protein (RBP) (Homo sapiens, UniProt P02753); test: Fluorescence quenching study of MPR binding to retinol binding protein; details: 1 μM ligand, 0.5 μM Apo-RBP
Experimental: Apo-RBP at 0.5 μM was incubated with 0, 0.25, 0.5, 1 and 2 μM of MPR in PBS at room temperature for 1 hour, respectively. As controls, the same concentration of Apo-RBP was also incubated with 1 μM of HPR or 1 μM of atROL. All mixtures contained 0.2% Ethanol (v/v). The emission spectra were measured between 290 nm to 550 nm with excitation wavelength at 280 nm and 3 nm bandpass.

[4] = system: ABCA4 null mutant mice; test: 28-day HPR dose study: serum retinol, A2PE-H2, A2E, retinoids, retinal physiology and histology; type: in vivo
Experimental: ABCA4 null mutant mice were given the indicated dose of HPR in DMSO (i.p.) daily for 28 days (n=4 mice per dosage group). At the end of the study period, blood samples were taken and serum was prepared. Following acetonitrile precipitation of serum proteins, the concentrations of retinol and HPR were determined from the soluble phase by LC/MS (see FIG. 8). Identity of the eluted compounds was confirmed by UV-vis absorption spectroscopy and co-elution of sample peaks with authentic standards.
Group averages from the data shown in panels A-G of FIG. 13 in Example 25 (28 day time points) are plotted to illustrate the strong correlation between increases in serum HPR and decreases in serum retinol (see FIG. 14). Reductions in serum retinol are highly correlated with reductions in A2E and precursor compounds (A2PE-H2). A pronounced reduction in A2PE-H2 in the 2.5 mg/kg dosage group (−47%) is observed when the serum retinol reduction is only 20%. The reason for this disproportionate reduction is related to the inherently lower ocular retinoid content in this group of 2-month old animals compared to the other groups. It is likely that if these animals had been maintained on the 2.5 mg/kg dose for a more prolonged period, a greater reduction in A2E would also be realized.
Panels D-F of FIG. 15 are electrophysiological measurements of rod function (panel D), rod and cone function (panel E) and recovery from photobleaching (panel F).
ABCA4 null mutant mice were given the indicated dose of HPR in DMSO or DMSO alone daily for 28 days (n=16 mice per treatment group). At study onset, mice in the 2.5 mg/kg group were 2 months of age, mice in the other treatment groups were 3 months of age. At the indicated times, representative mice were taken from each group (n=4) for analysis of A2E precursor compounds (see FIG. 13, A2PE-H2, panels A, C and E) and A2E (see FIG. 13, panels B, D and F). Eyes were enucleated, hemisected and lipid soluble components were extracted from the posterior pole by chloroform/methanol-water phase partitioning. Sample extracts were analyzed by LC. Identity of the eluted compounds was confirmed by UV-vis absorption spectroscopy and co-elution of sample peaks with authentic standards. Note: limitations in appropriately age and strain-matched mice in the 10 mg/kg group prevented analysis at the 14-day interval.
Treatment conditions are as described above.

[5] = system: ABCA4−/− mice; test: Drug holiday after 28 days of HPR: A2E and precursors in eyecup extracts (HPLC); type: in vivo; details: for A2E and precursor (A2PE-H2 and A2PE) levels: 10 mg/kg 28 days
Experimental: HPR (10 mg/kg in DMSO) was administered to ABCA4−/− mice daily for a period of 28 days. Control ABCA4−/− mice received only DMSO for the same period. […] Importantly, the observed reductions in lipofuscin autofluorescence persist long after cessation of HPR therapy. HPR (10 mg/kg), or DMSO, administration was discontinued following 28 days of treatment and re-evaluated A2E and precursor levels after 2 weeks and after 4 weeks.
We examined eyecup extracts by HPLC and employed detection by absorbance and fluorimetry. Identity of the indicated peaks was confirmed by on-line spectral analysis and by co-elution with authentic standards. […] Further, the A2E and precursor (A2PE-H2 and A2PE) levels after a […] or 28-day drug holiday remained at or near the levels immediately following 28 days of treatment (i.e., ca. 50% reduction relative to control), although after the 28-day drug holiday, the amount of A2E and precursor (A2PE-H2 and A2PE) had increased by a few percentage points relative to the 12-day drug holiday levels. […] It is clear that peak fluorescence tracks with the abundance of A2E, A2PE and A2PE-H2.

[6] = cited from earlier work
[7] = target: interaction of TTR with RBP (Homo sapiens, UniProt P02753); details: Malpeli et al., Holven et al.; cited from earlier work
[8] = 5-20 mg/kg, i.p. in DMSO, 28 days

CC1=C(/C=C/C(C)=C/C=C/C(C)=C/C(=O)Nc2ccc(O)cc2)C(C)(C)CCC1 [HPR, N-(4-hydroxyphenyl)retinamide]
ocular retinoids and A2E [1, 8]: commensurate reductions in ocular retinoids and A2E | serum retinol as a function of increasing serum HPR [1, 8]: Profound reductions in serum retinol | reduction in serum RBP-retinol ([1]; administered dose 10 mg/kg): 50-60% | inhibition of LRAT activity ([1]; mice receiving acute and chronic doses): has not been observed | reduction in ocular retinal ([2]; i.p. in DMSO, wild type mice): ~30% | reduction in ocular retinol ([2]; i.p. in DMSO, wild type mice): ~40% | reduction in serum retinol ([2]; i.p. in DMSO, wild type mice): ~55% | inhibition in synthesis of retinyl esters or visual chromophore ([2]; i.p., 1000 lux for 10 min): no significant inhibition | effect on LRAT or Rpe65/isomerase activities ([2]; i.p., wild type mice): no effect | binding to RBP [3]: bind to RBP | reduction in A2PE-H2 ([4]; 2.5 mg/kg dosage group, 28 days): −47% | electrophysiology: recovery from photobleaching ([4]; 10 mg/kg daily for 28 days): delayed dark adaptation | regeneration of visual chromophore ([4]; 10 mg/kg daily for 28 days): does not affect regeneration of visual chromophore | retinal morphology by light microscopy ([4]; 28 days): No aberrant morphology or compromise of the integrity in retinal cyto structure was observed | level of autofluorescence versus wild type ([4]; abcr null mutant mice, 28 days): comparable to that of an age-matched wild-type animal | lipofuscin autofluorescence in the RPE ([4]; abcr null mutant mice, 28 days): significantly reduces lipofuscin autofluorescence | A2PE-H2 and A2E during the study period ([4]; indicated doses daily for 28 days): dose-dependent reductions | serum retinol ([4]; summary statement): potently and reversibly reduces serum retinol | A2E and precursor (A2PE-H2 and A2PE) levels ([5]; then 12-day drug holiday): remain significantly reduced relative to control mice | A2E and precursor (A2PE-H2 and A2PE) levels ([5]; then 28-day drug holiday): remain significantly reduced relative to control mice | detection of HPR or HPR metabolites in the eyes ([5]; 28-day drug holiday): unable to detect | reduction of A2E and precursors relative to control ([5]; immediately following 28 days of treatment, level held after 12- or 28-day drug holiday): ca. 50% | serum retinol and RBP ([6]; Formelli et al., Torrisi et al.): reductions in serum retinol and RBP | reduction in circulating RBP and retinol ([6]; several investigators, Berni et al. 1993): established in vivo | interaction of TTR with RBP [7]: interferes with the normal interaction of TTR with RBP
